Source: patent US11787839B2, “Targeting α2δ-1-bound glutamate receptors for treating diseases and disorders” (Board of Regents, The University of Texas System, priority 2017, dated 2023)
Entries after “also recorded” stand apart in the source; their conditions may differ.

What was measured:
[1] = tested on: α2δ-1-NMDAR interaction; test: Luminescence resonance energy transfer (LRET) in HEK293 cells; assay type: binding, rat
Text: Luminescence resonance energy transfer (LRET) measurements: For constructs used for LRET measurements, the extracellular non-disulfide-bonded cysteines were mutated to serines so that they were not labeled with the maleimide reactive fluorophore. For the GluN1 subunit, Cys22 and Cys459 were mutated; for the GluN2A subunit, Cys231, Cys399 and Cys461 were mutated. For measurement of LRET between GluN1 and α2δ-1, Cys22 was not mutated and was used as the site for attachment of the thiol-reactive fluorophore. Additionally, for quantitative analysis of the background, a thrombin recognition sequence (amino acids LVPRGS) was inserted immediately at the C-terminal to the cysteine (Kim and Chung, 1992). […]
Cysteines at the GluN1 and GluN2A sites labeled with thiol-reactive terbium chelate served as donor fluorophore sites, and YFP fused to α2δ-1 served as the acceptor fluorophore. […] The sample was excited at 337 nm, and emission was detected at 527 nm in a QuantaMaster QM3-SS system with Fluorescan software (Photon Technology International, Edison, N.J.). […] Data were analyzed with Origin 8.6 software (OriginLab Corp., Northampton, Mass.). Each sample was scanned 3 times for each ligated condition, and each scan was recorded as an average of 99 sweeps. […] The distance between the donor and acceptor was calculated using the Förster equation (Kim and Chung, 1992).

[2] = biological target: T1, NMDARs of hippocampal CA1 pyramidal neurons (Mus musculus, UniProt O08532+P35438); test: Puff NMDAR currents of hippocampal CA1 neurons, oxygen-glucose deprivation (OGD); assay type: cell-based; settings: gabapentin 30 or 100 μM, 60 min
T1 construct: from tissue; host or cells: mouse brain slices (hippocampal CA1, hypothalamic PVN, brain tissue membrane extracts)
T1 sequence (O08532 25-956 limits assumed, other chains not shown): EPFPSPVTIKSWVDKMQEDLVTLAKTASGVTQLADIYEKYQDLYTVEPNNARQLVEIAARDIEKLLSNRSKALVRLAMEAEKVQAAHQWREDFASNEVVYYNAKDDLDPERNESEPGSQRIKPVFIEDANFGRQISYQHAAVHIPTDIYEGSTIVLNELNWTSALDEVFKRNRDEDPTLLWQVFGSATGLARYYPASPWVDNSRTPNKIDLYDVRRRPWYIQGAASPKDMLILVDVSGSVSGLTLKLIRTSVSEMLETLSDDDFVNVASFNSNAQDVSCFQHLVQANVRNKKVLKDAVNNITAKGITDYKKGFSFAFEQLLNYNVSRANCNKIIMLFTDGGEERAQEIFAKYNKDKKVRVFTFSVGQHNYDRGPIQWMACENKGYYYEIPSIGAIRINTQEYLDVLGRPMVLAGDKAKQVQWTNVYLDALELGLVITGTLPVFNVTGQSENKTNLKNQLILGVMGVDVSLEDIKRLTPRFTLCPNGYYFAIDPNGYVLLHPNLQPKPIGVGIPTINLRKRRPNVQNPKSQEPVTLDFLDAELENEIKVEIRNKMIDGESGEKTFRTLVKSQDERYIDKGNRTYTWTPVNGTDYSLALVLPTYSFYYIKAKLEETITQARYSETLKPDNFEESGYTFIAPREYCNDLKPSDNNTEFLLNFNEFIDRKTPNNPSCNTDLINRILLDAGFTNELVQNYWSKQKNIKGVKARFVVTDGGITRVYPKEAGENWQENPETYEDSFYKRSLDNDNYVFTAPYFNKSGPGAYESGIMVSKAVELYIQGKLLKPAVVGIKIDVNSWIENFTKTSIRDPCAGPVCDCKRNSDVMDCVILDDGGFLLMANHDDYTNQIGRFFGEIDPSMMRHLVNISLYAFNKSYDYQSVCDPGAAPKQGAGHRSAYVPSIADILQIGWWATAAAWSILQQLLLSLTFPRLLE
Method: Brain slice preparation and recording. The tissues containing the hippocampus were sliced sagittally (300 μm thick) using a vibratome. […] NMDAR currents of pyramidal neurons in the hippocampal CA1 region were recorded by puff application of 100 μM NMDA directly to the recorded neuron at a holding potential of −60 mV.

[3] = tested on: Cacna2d1 KO mice; test: Nerve injury-induced pain hypersensitivity in Cacna2d1 KO mice; assay type: in vivo, mouse
Method: Conventional α2δ-1 KO mice (C57BL/6 genetic background) were generated as described previously (Muller et al., 2010). Two breeding pairs of α2δ-1^+/− mice were purchased from Medical Research Council (Harwell Didcot, Oxfordshire, UK), and α2δ-I^−/− mice and α2δ-1^+/+ (wild-type) littermates were obtained by breeding the heterozygous mice. The spared nerve injury (SNI) procedure […] was performed on both male and female mice (10-11 weeks of age). Under a surgical microscope, the left common peroneal and tibial nerves were ligated and sectioned, leaving the sural nerve intact. The sham procedure consisted of the same surgery without nerve ligation and sectioning.
Behavioral assessments of nociception: To detect tactile allodynia, von Frey filaments were applied to the animals' left hindpaws (ipsilateral to the nerve injury). The rats or mice were placed individually in suspended chambers on a mesh floor. […] Using the up-down method, the tactile stimulus that produced a 50% likelihood of a withdrawal response was calculated (Fuller-Bicer et al., 2009).
(§1) To quantify the mechanical nociceptive threshold in the rats and mice (Patel et al., 2013; Dolphin et al., 2012), the paw pressure tests were conducted on the hindpaw with an analgesiometer (Ugo Basile, Varese, Italy). […]

[4] = tested on: SNL rats; test: Withdrawal thresholds in spinal nerve ligation (SNL), sham and naive rats; assay type: in vivo, rat
Text: Animal models of neuropathic pain: All surgical preparations and experimental protocols were approved by the Animal Care and Use Committee of the University of Texas MD Anderson Cancer Center and conformed to the National Institutes of Health guidelines for the ethical use of animals. Male Sprague-Dawley rats (8-10 weeks of age) were purchased from Harlan Laboratories (Indianapolis, Ind.). L5 and L6 spinal nerve ligation (SNL) were used as an experimental model of neuropathic pain (Cole et al., 2005). In brief, anesthesia was induced with 2-3% isoflurane, isolated the left L5-L6 spinal nerves and ligated them tightly with 6-0 silk sutures. The rats in the sham control group underwent the same surgical procedures except for the nerve ligation.
Intrathecal catheters were implanted in some SNL group rats during isoflurane-induced anesthesia 2-3 weeks after SNL surgery. Briefly, the anesthetized animal was placed on a stereotaxic frame, and a small incision was made at the back of its neck. Then, a small puncture was made in the atlanto-occipital membrane of the cisterna magna, and a PE-10 catheter (˜8 cm) was inserted with the caudal tip reaching the lumbar enlargement of the spinal cord (Luo et al., 2001; Patel et al., 2013). The rostral end of the catheter was exteriorized and closed the wound with sutures. The animals were allowed to recover for at least 4 days before the intrathecal injections were performed. Animals displaying signs of motor or neurological dysfunction were immediately killed with an intraperitoneal injection of phenobarbital (200 mg/kg) or by inhalation of CO2.
Behavioral assessments of nociception: To detect tactile allodynia, von Frey filaments were applied to the animals' left hindpaws (ipsilateral to the nerve injury). The rats or mice were placed individually in suspended chambers on a mesh floor. After an acclimation period of 30 min, a series of calibrated von Frey filaments were applied (Stoelting, Wood Dale, Ill.) perpendicularly to the plantar surface of the hindpaw with sufficient force to bend the filament for 6 s. Brisk withdrawal or paw flinching was considered a positive response. After a response, the filament of the next lower force was applied. In the absence of a response, the filament of the next greater force was applied. Using the up-down method, the tactile stimulus that produced a 50% likelihood of a withdrawal response was calculated (Fuller-Bicer et al., 2009).
as §1, with “Italy). The device was activated by pressing a foot pedal, which triggered a motor that applied a constantly increasing force on a linear scale.” for “Italy).”

| Molecule | LRET signal with the R217A mutant of α2δ-1 ([1]; YFP-α2δ-1 R217A mutant) | LRET signal between terbium-labeled NMDAR subunit and YFP-α2δ-1 ([1]; wild-type α2δ-1, terbium-labeled GluN2A or GluN1) | OGD-induced increase in the puff NMDAR currents ([2]; 5 min OGD, peptides 1 μM) | basal puff NMDAR currents of hippocampal CA1 pyramidal neurons ([2]; before OGD, peptide 1 μM) | nerve injury-induced pain hypersensitivity in Cacna2d1 KO mice [3] | pain hypersensitivity of SNL rats ([4]; SNL rats, peptides intrathecal or systemic, siRNA intrathecal) | withdrawal thresholds in sham control rats ([4]; sham control rats) |
| --- | --- | --- | --- | --- | --- | --- | --- |
| NCC1(CC(=O)O)CCCCC1 [gabapentin] | failed to alter; also recorded: had no effect | completely abrogated; also recorded: loss of the LRET signal; also recorded: diminished the interaction | – | – | – | – | – |
| YGRKKRRQRRRVSGLNPSLWSIFGLQFILLWLVSGSRHYLW (a2d1 peptide) [α2δ-1Tat peptide, 30-amino-acid peptide mimicking the C-terminal domain of α2δ-1 fused to the cell-penetrating peptide Tat] | – | – | failed to increase | had no effect | had no effect | large reduction | had no effect |
